Data from article PMC10714390, “Quinoline Compounds Targeting the c-Ring of ATP Synthase Inhibit Drug-Resistant Pseudomonas aeruginosa” (ACS Infectious Diseases, 2023).
“And” between values parts separate entries of the source, which are not always exact repeats. Identical values can stand only once.

Experiments:
[1] = system: drug-resistant P. aeruginosa BAA 2109; assay: Antimicrobial susceptibility (broth microdilution), BAA 2109; format: cell-based, Pseudomonas aeruginosa; settings: for MIC: Pseudomonas aeruginosa, BAA2109, read-out: antibacterial activity (MIC) BAA 2109; for antibacterial activity in words, BAA 2109: summary of Table 1
Experimental: The following are general steps, unless otherwise noted. All steps were completed using aseptic techniques. All media and glassware were sterilized via an autoclave at 121 °C for 60 min. All agitation occurred at 160 rpm in a temperature-controlled console shaker (Excella E25) at 37 °C. Full-strength tryptic soy broth (TSB) was made by dissolving 30 g of BD Bacto TSB powder in 1 L of deionized water. Purchased and acquired bacterial strains used were E. coli (ATCC 25922), P. aeruginosa (ATCC 9027), drug-resistant P. aeruginosa from ATCC Panel MP-23 (BAA 2108, BAA 2109, BAA 2110), and P. aeruginosa efflux knockout GKCW120 (PΔ6)[6] provided by Zgurskaya and co-workers at the University of Oklahoma.
Susceptibility testing was performed in biological triplicate using the broth microdilution method as outlined by the Clinical and Laboratory Standards Institute. […] Briefly, to each well, 1 μL of compound in DMSO, 89 μL of TSB, and 10 μL of bacterial inoculum, grown from a single colony in 10 mL of TSB for 4–6 h, were added. After incubation for 12–15 h at 37 °C, absorbance at 590 nm was read on a Biotek Synergy HTX Multimode plate reader. Data were processed by background subtracting the media absorbance and then normalizing the data to full bacterial growth with the vehicle only. MIC is defined as the lowest concentration of antibiotic or antibiotic/adjuvant combination that achieves ≥85% growth inhibition, which corresponds to no visible growth.

[2] = molecular target: T1, PA ATP synthase expressed in E. coli DK8/pASH20 (Pseudomonas aeruginosa, UniProt Q9HT15); assay: NADH-driven ATP synthesis inhibition, DK8/pASH20 membrane vesicles; format: biochemical; settings: for IC50: ATP synthesis IC50, DK8/pASH20 vesicles, wild-type PA ATP synthase in E. coli DK8, NADH-driven, end point luminescence assay; for Hill coefficient of dose response fit, DK8/pASH20 vesicles: inhibition of ATP synthesis activity
T1 construct: expressed in transfected cells; host or cells: E. coli K-12 DK8 (lacks its own ATP synthase) transformed with pASH20 (pBR322 derivative)
Experimental: P. aeruginosa (ATCC 9027) was streaked onto a 10% TSB agar plate and incubated at room temperature for 72 h. A single colony was resuspended in 100 μL of H2O, and 5 μL was used as the DNA template for PCR with Q5 polymerase (NEB) and […] each of forward and reverse primers. Primers were complementary to regions flanking the atp operon and included sequences for HindIII and NdeI restriction sites (see the SI for primer sequences). The resulting 6.9 kbp DNA fragment was digested with HindIII and NdeI and ligated into digested vector pBR322 (New England Biolabs). The resultant pASH20(-i) plasmid contains a partial atpI gene. To complete the atpI gene, the HindII-XhoI fragment of pASH20(-i) was replaced with a synthetic fragment with a complete atpI (Twist Bioscience) to yield pASH20. The sequence of the entire operon was verified by Sanger DNA sequencing through the ligation sites. Subunit c mutations were introduced by exchanging the XhoI-BamHI fragment containing atpE with a synthetic fragment containing mutated atpE (Twist Bioscience).
Vesicles were prepared from P. aeruginosa and transformed E. coli cells as previously described.[22] Briefly, cells were grown in LB liquid medium at 37 °C with shaking and harvested by centrifugation after 7 h of growth. Cultures of transformant E. coli included 100 μg/mL ampicillin. Cells were disrupted in TMG buffer (50 mM Tris-HCl, MgCl2, 10% (v/v) glycerol, pH 7.5) using an Avestin B15 homogenizer at 19,000 psi. After unbroken cells and debris were cleared by centrifugation at 9000g, inverted vesicles were collected by centrifugation at 193,000g, resuspended in TMG buffer, and stored at −80 °C. Protein concentrations were determined using a modified Lowry assay.[25]
Continuous ATP synthesis activity of inverted membrane vesicles was measured using a luciferin/luciferase luminescence assay as previously described.[22] Inhibition of ATP synthesis activity by test compounds was determined using an end point assay essentially as previously described.[18],[26] In this assay, the synthesis reaction was initiated by 2.5 mM NADH, proceeded for 10 min, and was stopped with 1% trichloroacetic acid, 2 mM CCCP, and 10 mM EDTA. Samples from each reaction were diluted 500-fold prior to the addition of luciferase since quinoline compounds are known to inhibit luciferase.[27] This dilution was sufficient to minimize inhibition of luciferase (Figure S4). Each replicate set included a positive control containing DMSO with no compound and a negative control containing carbonyl cyanide m-chlorophenyl hydrazone. Luminescence values were corrected for the background by subtracting the negative control and then normalized to the positive control within the same replicate. Dose–response curves were fit using eq 1, where activity is the relative ATP synthesis activity, [I] is the concentration of inhibitor in μg/mL, and n is the Hill coefficient. [drawing 1] 1

Row | SMILES | MIC [1] | antibacterial activity in words, BAA 2109 [1] | IC50 [2] | Hill coefficient of dose response fit, DK8/pASH20 vesicles [2]
1 | CSc1nc2ccccc2cc1CNCc1ccc(CN(C)C)cc1 [Compound 4, N,N-Dimethyl-1-(4-((((2-(methylthio)quinolin-3-yl)methyl)amino)methyl)phenyl)methanamine] | 256 µg/mL | able to inhibit | 86.2 µM and 85.3 µM | 1.0
2 | CN(C)Cc1ccc(CNCc2cc3ccccc3nc2SCc2ccccc2)cc1 [Compound 5, 1-(4-((((2-(Benzylthio)quinolin-3-yl)methyl)amino)methyl)phenyl)-N,N-dimethylmethanamine] | > 128 µg/mL | inactive | 5.38 µM | 1.3
